According to patent publication US20100105864A1, “PROPHYLACTIC OR THERAPEUTIC AGENT FOR DIARRHEA” (priority 2007, published 2010):

Biological target: T1, human calcium receptor (Homo sapiens, UniProt P41180)
T1 construct: expressed in transfected cells; host or cells: Xenopus laevis oocytes injected with cRNA
T1 sequence (P41180 20-1078): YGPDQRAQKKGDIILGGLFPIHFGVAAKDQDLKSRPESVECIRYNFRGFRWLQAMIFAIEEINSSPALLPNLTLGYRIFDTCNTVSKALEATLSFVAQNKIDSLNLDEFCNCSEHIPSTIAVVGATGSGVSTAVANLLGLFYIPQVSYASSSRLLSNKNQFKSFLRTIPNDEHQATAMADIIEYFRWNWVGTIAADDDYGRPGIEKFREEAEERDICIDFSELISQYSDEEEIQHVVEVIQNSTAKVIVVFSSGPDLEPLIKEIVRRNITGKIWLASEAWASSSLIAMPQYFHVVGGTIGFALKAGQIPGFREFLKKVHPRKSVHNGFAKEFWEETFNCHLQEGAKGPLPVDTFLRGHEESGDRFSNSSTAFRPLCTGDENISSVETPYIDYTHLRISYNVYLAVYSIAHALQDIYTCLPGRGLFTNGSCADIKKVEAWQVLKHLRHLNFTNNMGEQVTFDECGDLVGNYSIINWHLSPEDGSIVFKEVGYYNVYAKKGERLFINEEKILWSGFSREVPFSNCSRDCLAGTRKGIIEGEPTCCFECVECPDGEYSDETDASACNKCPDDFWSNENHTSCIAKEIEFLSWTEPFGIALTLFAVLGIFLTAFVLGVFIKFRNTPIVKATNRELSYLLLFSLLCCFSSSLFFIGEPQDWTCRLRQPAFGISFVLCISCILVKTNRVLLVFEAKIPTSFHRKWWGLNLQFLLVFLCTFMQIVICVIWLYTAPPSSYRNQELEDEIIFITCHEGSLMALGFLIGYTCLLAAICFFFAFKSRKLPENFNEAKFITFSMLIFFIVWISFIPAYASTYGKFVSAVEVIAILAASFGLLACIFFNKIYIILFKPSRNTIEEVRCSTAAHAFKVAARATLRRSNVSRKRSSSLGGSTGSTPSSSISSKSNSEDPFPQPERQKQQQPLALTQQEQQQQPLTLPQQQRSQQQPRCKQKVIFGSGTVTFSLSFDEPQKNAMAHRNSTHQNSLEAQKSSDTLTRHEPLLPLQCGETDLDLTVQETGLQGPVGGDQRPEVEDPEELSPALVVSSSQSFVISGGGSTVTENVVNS
Assay: Ca ion concentration-dependent Cl ionic current measurement in Xenopus laevis oocytes expressing the calcium receptor
Assay type: cell-based
Conditions: peptide added at 50 μM
Protocol: For evaluation of the calcium receptor-activating action, a Ca ion concentration-dependent Cl ionic current measuring method using a Xenopus laevis oocyte expression system was used. If each activator is added to Xenopus laevis oocytes expressing the calcium receptor, intracellular Ca ions increase. Then, the Ca ion concentration-dependent Cl channel opens, and the intracellular current value changes as an ionic current. By measuring the change in the intracellular current value, whether the calcium receptor-activating action is present or not can be determined.
Specifically, the abdomen of Xenopus laevis was opened, and an egg batch was taken out and then treated with a 1% collagenase solution at 20° C. for 2 hours to obtain individual oocytes. Into the oocytes, 50 nl of 1 μg/μl receptor cRNA or 50 nl of sterilized water per oocyte were injected by using a micro glass capillary, and the oocytes were cultured at 18° C. for 2 to 3 days. For the culture, a solution obtained by adding 2 mM pyruvic acid, 10 U/ml penicillin, and 10 μg/ml streptomycin to the solution in Example 2 was used. After the culture, a test solution was added to the oocytes injected with cRNA or sterilized water. Electrophysiological measurement was performed by using an amplifier Geneclamp 500 (manufactured by Axon) and recording software AxoScope 9.0 (manufactured by Axon). The oocytes were membrane potential-clamped at −70 mV by the double electrode potential clamp method, and the intracellular current was measured via the Ca ion concentration-dependent Cl ion channel. The maximum value of the intracellular current was defined as the response current value. […]
The calcium receptor-activating action of L-amino acids was evaluated by using the method described in Example 13. That is, oocytes injected with cRNA of the calcium receptor or sterilized water were prepared, and membrane potential-clamped at −70 mV by the double electrode potential clamp method. To the potential-clamped oocytes, alanine (10 mM), arginine (10 mM), asparagine (10 mM), aspartic acid (10 mM), cysteine (10 mM), glutamine (10 mM), glutamic acid (10 mM), glycine (10 mM), histidine (10 mM), isoleucine (10 mM), leucine (10 mM), lysine (10 mM), methionine (10 mM), phenylalanine (10 mM), proline (10 mM), serine (10 mM), threonine (10 mM), tryptophan (10 mM), tyrosine (10 mM), valine (10 mM), ornithine (10 mM), taurine (10 mM), or hydroxyproline (10 mM) was added, and Ca ion concentration-dependent Cl response current was measured. […] As for the above-described amino acids, the activating action is reported in Proc. Natl. Acad. Sci. USA, Apr. 25, 2000, 97(9): 4814-9.
The calcium receptor-activating action of D-cysteine was evaluated by using the method described in Example 13. That is, oocytes injected with cRNA of the calcium receptor or sterilized water were prepared, and membrane potential-clamped at −70 mV by the double electrode potential clamp method. To the potential-clamped oocytes, D-cysteine (10 mM), L-cysteine (10 mM), D-tryptophan (10 mM), or L-tryptophan (10 mM) was added, and Ca ion concentration-dependent Cl response current was measured.
The calcium receptor-activating action of a peptide was evaluated by using the method described in Example 13. That is, oocytes injected with cRNA of the calcium receptor or sterilized water were prepared, and membrane potential-clamped at −70 mV by the double electrode potential clamp method.

`N[C@@H](CCC(=O)N[C@@H](CS)C(=O)NCC(=O)O)C(=O)O` [γ-Glu-Cys-Gly] was tested, and the “calcium receptor-activating action (Ca ion concentration-dependent Cl response current)” value was “definite calcium receptor-activating action”.
